According to US20240393292A1, “ALLERGY ANTIGEN AND EPITOPE THEREOF” (HOYU CO., LTD., priority 2019, published 2024):
Blank lines part the entries; values can stand above or below the substance they belong to.

System: IgE antibodies from patients
Assay: Wheat epitope mapping (2): overlapping 10-amino-acid peptide fragments shifted by one amino acid;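 as to Rank of partial sequence as epitope binding to IgE antibody: key = sequence deemed particularly important within the common 15-residue sequence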;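 as to epitope sequence binding to IgE antibody, rank (Key/Preferably/More preferably): key of grades: preferably = shorter partial sequence still acting as epitope; more preferably = sequence improving IgE binding; key = particularly important sequence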
Assay type: binding, human
Procedure: The peptides to be synthesized were shifted by one amino acid.
The library was prepared by the same procedure as described above in (A), and the presence or absence of binding of an IgE antibody present in the serum of a patient to each peptide fragment was measured by the same technique as described above. Numeric values determined from images obtained as a result of carrying out only the procedures (1) and (4) to (6) described above in the subsection titled (3) Spotting of cellulose-bound peptide solution were used as control values. The control value of each peptide was subtracted from numeric values determined from images obtained from results about the serum of patients, and the obtained value of the difference was compared with values of the peptides serving as the basis of overlapping.
Chemiluminescence intensity in images obtained by measurement was converted into a numeric value in the same manner as in (A). Numeric values determined from images obtained as a result of carrying out only the procedures (1) and (4) to (6) described above in the subsection titled (3) Spotting of cellulose-bound peptide solution (secondary antibody measurement values) were used as control values. The control value of each peptide was subtracted from numeric values determined from images obtained from results about the serum of patients. When values obtained using the sequences (SEQ ID NOs: 29, 131, 191, 281, 346, 414, 493, 562, 640, 706, 776, 899, 974, 1010, 1089, 1142, 1166, 1209, 1257, 1297, 1367, 1403, 1508, 1566, 1598, 1608, 1685, 1753, 1789, 1836, 1895, 1977, 2004, 2027, 2068, 2154, 2217, 2265, 2309, 2342, 2419, 2491, 2545, 2613, 2631, 2674, 2701, 2774, 2809 and 2830) serving as the basis of overlapping were defined as 100%, it was determined that: a peptide having a value of the difference that was less than 30% had no binding activity against IgE antibodies; a peptide having a value of the difference that was 30% or more and less than 50% had binding activity, albeit poor, against IgE antibodies; a peptide having a value of the difference that was 50% or more and less than 70% had binding activity, albeit somewhat poor, against IgE antibodies; and a peptide having a value of the difference that was 70% or more had equivalent or good binding activity against IgE antibodies and was thus a peptide had remaining binding activity against IgE antibodies.

[1] = serum of patient P52 (child, general immediate type allergy to wheat), sequence without X
[2] = serum of patient P50 (child, general immediate type allergy to wheat), sequence without X

- Epitope sequence binding to IgE antibody, rank of the sequence (serum of patient P7 (WDEIA), partial sequence): Preferably
Substance: 2552 (QLVQQLCC; REGION 1..8: note = epitope) [compound 2552]

- Epitope sequence binding to IgE antibody, rank of the sequence (serum of patient P26 (WDEIA), partial sequence): Key
Substance: 2567 (QLVQQ; REGION 1..5: note = epitope) [compound 2567]

- Epitope sequence binding to IgE antibody, rank of the sequence (Key/Preferably/More preferably) [1]: Key
Substance: 2251 (SRLLRGIR; REGION 1..8: note = epitope) [compound 2251]

- Epitope sequence binding to IgE antibody, rank of the sequence (serum of patient P34 (WDEIA), partial sequence): Preferably
Substance: 2590 (QLVQQLCC; REGION 1..8: note = epitope) [compound 2590]

- Epitope sequence binding to IgE antibody, rank of the sequence (Key/Preferably/More preferably) [1]: Key
Substance: 2254 (NYRV; REGION 1..4: note = epitope) [compound 2254]

- Epitope sequence binding to IgE antibody, rank of the sequence (serum of patient G7 (adult, general immediate type allergy to wheat), partial sequence): Key
Substance: 2698 (KGPTL; REGION 1..5: note = epitope) [compound 2698]

- Epitope sequence binding to IgE antibody, rank of the sequence (Key/Preferably/More preferably) (serum of patient P9 (WDEIA), sequence without X): Key
Substance: 2344 (HDIDRCAY; REGION 1..8: note = epitope) [compound 2344]

- Epitope sequence binding to IgE antibody, rank of the sequence (Key/Preferably/More preferably/Further preferably) [2]: Key
Substance: 2247 (LLRGIRNYRV; REGION 1..10: note = epitope) [compound 2247]

- Epitope sequence binding to IgE antibody, rank of the sequence (serum of patient P20 (WDEIA), partial sequence): Preferably
Substance: 2643 (KEAAEMN; REGION 1..7: note = epitope) [compound 2643]

- Epitope sequence binding to IgE antibody, rank of the sequence (serum of patient G5 (adult, general immediate type allergy to wheat), partial sequence): Key
Substance: 2671 (AEMNKRSFK; REGION 1..9: note = epitope) [compound 2671]

The remaining lines, values behind:

Substance: 2222 (RLLRGIRNY; REGION 1..9: note = epitope) [compound 2222]
- Epitope sequence binding to IgE antibody, rank of the sequence (Key/Preferably/More preferably) (serum of patient P8 (WDEIA), sequence without X): Key

Substance: 1803 (SGKELE; REGION 1..6: note = epitope) [compound 1803]
- epitope sequence binding to IgE antibody, rank (Key/Preferably/More preferably) (serum of patient P18 (WDEIA)): Key

Substance: 1732 (KEAA; REGION 1..4: note = epitope) [compound 1732]
- epitope sequence binding to IgE antibody, rank (Key/Preferably/More preferably) (serum of patient P53 (child, general immediate type allergy to wheat)): Key

Substance: 1844 (TVRTLQ; REGION 1..6: note = epitope) [compound 1844]
- epitope sequence binding to IgE antibody, rank (Key/Preferably/More preferably) (serum of patient P9 (WDEIA)): Key

Substance: 1558 (PLVQQQQF; REGION 1..8: note = epitope) [compound 1558]
- Rank of partial sequence as epitope binding to IgE antibody [2]: Preferably

Substance: 1380 (PWQQQPLPPQ; REGION 1..10: note = epitope) [compound 1380]
- Epitope sequence binding to IgE antibody, rank of the sequence (serum of patient P10 (WDEIA), sequence without X): Key

Substance: 1811 (ALPKFLKNG; REGION 1..9: note = epitope) [compound 1811]
- epitope sequence binding to IgE antibody, rank (Key/Preferably/More preferably) (serum of patient P26 (WDEIA)): Preferably

Substance: 1509 (QVPLVQQ; REGION 1..7: note = epitope) [compound 1509]
- Rank of partial sequence as epitope binding to IgE antibody (serum of patient P3 (WDEIA), sequence without X): Preferably

Substance: 1631 (DKVPFVPISG; REGION 1..10: note = epitope) [compound 1631]
- Rank of partial sequence as epitope binding to IgE antibody (serum of patient P28 (WDEIA), sequence without X): Key

Substance: 1868 (TVRTLQ; REGION 1..6: note = epitope) [compound 1868]
- epitope sequence binding to IgE antibody, rank (Key/Preferably/More preferably) (serum of patient P28 (WDEIA)): Key

Substance: 1518 (QVPLVQQ; REGION 1..7: note = epitope) [compound 1518]
- Rank of partial sequence as epitope binding to IgE antibody (serum of patient P7 (WDEIA), sequence without X): Preferably

Substance: 1543 (QVPLVQQ; REGION 1..7: note = epitope) [compound 1543]
- Rank of partial sequence as epitope binding to IgE antibody (serum of patient P21 (WDEIA), sequence without X): Preferably

Substance: 1680 (YNPDKVPF; REGION 1..8: note = epitope) [compound 1680]
- Rank of partial sequence as epitope binding to IgE antibody (serum of patient G6 (adult, general immediate type allergy to wheat), sequence without X): More preferably

Substance: 1665 (VPFVPISG; REGION 1..8: note = epitope) [compound 1665]
- Rank of partial sequence as epitope binding to IgE antibody (serum of patient G2 (adult, general immediate type allergy to wheat), sequence without X): Key

Substance: 1743 (EAAN; REGION 1..4: note = epitope) [compound 1743]
- epitope sequence binding to IgE antibody, rank (Key/Preferably/More preferably) (serum of patient G4 (adult, general immediate type allergy to wheat)): Key

Substance: 1474 (LQPQQPIS; REGION 1..8: note = epitope) [compound 1474]
- Rank of partial sequence as epitope binding to IgE antibody (serum of patient P27 (WDEIA), sequence without X): Preferably

Substance: 1950 (QQQFPGQQQ; REGION 1..9: note = epitope) [compound 1950]
- epitope sequence binding to IgE antibody, rank (Key/Preferably/More preferably) (serum of patient P24 (WDEIA)): More preferably
